Results from article PMC6017322, “Triterpene Acids from Frankincense and Semi-Synthetic Derivatives That Inhibit 5-Lipoxygenase and Cathepsin G” (Molecules : A Journal of Synthetic Chemistry and Natural …, 2018).

What was measured:
[1] = biological target: T1, cathepsin G (Homo sapiens, UniProt P08311); assay: Cathepsin G activity in a cell-free assay (Suc-AAPF-pNA substrate); format: biochemical; conditions: for Cat. G IC50 / IC50 / remaining activity at 10 µM: cell-free; for Cat. G IC50 / IC50: purified cathepsin G from human neutrophils; for IC50: read-out: Cat. G IC50 (converted); for remaining activity at 10 µM: residual activity at 10 µM, mean ± SEM, 3–4 experiments, read-out: Cat. G Activity [% Control]
T1 construct: purified cathepsin G (0.2 µg) from human neutrophils; purchased Calbiochem; host or cells: human neutrophils (natural source)
T1 sequence (P08311 21-244 limits assumed): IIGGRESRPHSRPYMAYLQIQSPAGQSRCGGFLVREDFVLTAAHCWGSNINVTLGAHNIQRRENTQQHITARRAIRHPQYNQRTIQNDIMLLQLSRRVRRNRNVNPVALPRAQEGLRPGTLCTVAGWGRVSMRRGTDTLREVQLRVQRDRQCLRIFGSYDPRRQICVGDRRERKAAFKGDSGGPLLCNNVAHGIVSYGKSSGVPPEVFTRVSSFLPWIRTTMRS
Experimental: Commercially available purified cathepsin G (0.2 µg) from human neutrophils (Calbiochem, La Jolla, CA, USA) was mixed with test compounds or DMSO (vehicle control) in 200 µL 0.1 M HEPES pH 7.4, 0.5 M NaCl, and 10% DMSO in a 96-well plate (Greiner Bio-One, Frickenhausen, Germany) and pre-incubated for 20 min at 25 °C. Then, N-Suc–Ala–Ala–Pro–Phe–pNA (Suc–AAPF–pNA) (1 mM) as substrate for cathespin G was added, and the absorbance was measured at 410 nm at 25 °C using a Victor^2 plate reader (PerkinElmer, Waltham, MA, USA).

[2] = biological target: T2, 5-LO (Homo sapiens, UniProt P09917); assay: 5-LO activity in a cell-free assay (isolated human recombinant 5-LO, 20 µM arachidonic acid); format: biochemical; set-up: made in house; host or cells: Escherichia coli BL21 (pT3-5-LO plasmid); conditions: for IC50: isolated human 5-LO; for IC50 / remaining activity at 10 µM / 5-LO Activity [% Control] cell-free: 20 µM arachidonic acid; for remaining activity at 10 µM / 5-LO Activity [% Control] cell-free: residual activity at 10 µM, isolated 5-LO, mean ± SEM, 3–4 experiments; for remaining activity at 10 µM: read-out: 5-LO Activity [% Control] cell-free; for inhibition at 10 µM / inhibition of 5-LO activity, cell-free: at 10 µM
T2 sequence (P09917 1-674): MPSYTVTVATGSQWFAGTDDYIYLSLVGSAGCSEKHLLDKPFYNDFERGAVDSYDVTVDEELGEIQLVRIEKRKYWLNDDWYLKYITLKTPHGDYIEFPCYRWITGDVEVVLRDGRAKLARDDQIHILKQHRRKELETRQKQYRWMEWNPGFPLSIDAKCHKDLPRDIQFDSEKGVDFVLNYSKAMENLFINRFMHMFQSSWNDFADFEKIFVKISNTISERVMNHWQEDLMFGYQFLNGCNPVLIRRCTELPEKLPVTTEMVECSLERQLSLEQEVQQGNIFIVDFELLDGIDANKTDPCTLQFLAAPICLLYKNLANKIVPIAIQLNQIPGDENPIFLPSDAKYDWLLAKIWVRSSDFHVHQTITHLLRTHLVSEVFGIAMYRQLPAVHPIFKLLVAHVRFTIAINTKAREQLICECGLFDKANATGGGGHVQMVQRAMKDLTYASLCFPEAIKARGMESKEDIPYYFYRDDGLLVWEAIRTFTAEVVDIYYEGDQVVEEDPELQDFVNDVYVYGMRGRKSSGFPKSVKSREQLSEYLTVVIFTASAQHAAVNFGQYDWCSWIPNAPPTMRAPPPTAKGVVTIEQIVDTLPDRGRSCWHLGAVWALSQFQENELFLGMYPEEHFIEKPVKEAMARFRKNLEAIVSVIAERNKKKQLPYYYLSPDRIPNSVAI
Experimental: Human recombinant 5-LO was expressed in Eschericha coli BL21 transformed with pT3-5-LO plasmid at 30 °C overnight, as described elsewhere. Cells were lysed in lysis buffer containing triethanolamine (50 mM, pH 8.0), EDTA (5 mM), phenylmethanesulfonyl fluoride (1 mM), soybean trypsin inhibitor (60 µg/mL), dithiothreitol (2 mM), and lysozyme (1 mg/mL), and homogenized by sonification (3 × 15 s). 5-LO was then purified from 40,000× g supernatant (20 min, 4 °C) using an ATP-agarose column (Sigma-Aldrich, Deisenhofen, Germany), diluted with PBS buffer containing 1 mM EDTA, and immediately used for 5-LO activity assays.
To determine 5-LO activity, aliquots of purified 5-LO (0.5 µg 5-LO in 1 mL PBS plus 1 mM EDTA) were pre-incubated with the test compounds or vehicle (0.1% dimethyl sulfoxide, DMSO) on ice for 15 min, pre-warmed for 30 s at 37 °C in a water bath, and then stimulated with 20 µM AA and CaCl2 2 mM for 10 min at 37 °C. The reaction was stopped with one volume of ice-cold methanol and 5-LO products (including all-trans-isomers of LTB4 and 5-hydroperoxyeicosatetraenoic acid (5-HpETE), as well as its corresponding alcohol 5-hydroxyeicosatetraenoic acid (5-HETE)) were analyzed by reversed phase (RP)-HPLC (Elite LaChrom, VWR, Radnor, PA, USA) as previously described. In brief, acidified PBS and 200 ng of internal PGB1 standard were added and solid phase extraction using C18 RP-columns (100 mg, UCT, Bristol, PA, USA) was performed. After elution with methanol, samples were analyzed by RP-HPLC using a C-18 Radial-PAK column (Waters, Eschborn, Germany).

[3] = biological target: T2, 5-LO; assay: 5-LO product formation in intact human neutrophils stimulated with A23187 (cell-based); set-up: 5-LO product formation in intact human neutrophils; endogenous in cells; host or cells: freshly isolated human peripheral blood neutrophils; conditions: for IC50: human neutrophils stimulated with A23187; for remaining activity at 10 µM / 5-LO Activity [% Control] cell-based: residual activity at 10 µM, A23187, mean ± SEM, 3–4 experiments; for remaining activity at 10 µM: read-out: 5-LO Activity [% Control] cell-based
Experimental: Neutrophils were isolated from peripheral blood (University Hospital Tübingen, Germany), collected from fasted healthy adult donors that were informed about the aim of the study and gave written consent. Leukocyte concentrates were obtained by centrifugation (4000× g, 20 min, 20 °C) of heparinized blood preparation, and neutrophils were immediately isolated as described before. Briefly, leukocyte concentrates were subjected to dextran sedimentation and centrifuged on lymphocyte separation medium (LSM 1077, PAA, Coelbe, Germany). For isolation of pelleted neutrophils, remaining erythrocytes were removed by hypotonic lysis, washed twice with ice-cold phosphate-buffered saline (PBS) and finally resuspended in PBS buffer containing 0.1% glucose and CaCl2 (1 mM) (PGC buffer).
5-LO product formation in intact human neutrophils was performed using 5 × 10^6 freshly isolated cells that were resuspended in 1 mL PGC buffer. Cells were pre-incubated with the test compounds or vehicle (0.1% DMSO) at 37 °C for 15 min prior to stimulation with 2.5 µM Ca^2+-ionophore A23187 for 10 min (37 °C). 5-LO product formation was stopped by addition of one volume of ice-cold methanol, samples were subjected to solid phase extraction after addition of 200 ng PGB1 as internal standard, and 5-LO products (LTB4, its trans-isomers and 5-HETE) were analyzed by RP-HPLC as described above.

IC50 [1]	5-LO Activity [% Control] cell-based ([3]; human neutrophils)	5-LO Activity [% Control] cell-free [2]	inhibition of 5-LO activity in intact cells ([3]; at 10 µM, human neutrophils)	SMILES	Cat. G IC50 [1]	remaining activity at 10 µM [1]	IC50 [2]	remaining activity at 10 µM [2]	IC50 [3]	remaining activity at 10 µM ([3]; human neutrophils)	inhibition at 10 µM [2]	inhibition at 10 µM ([3]; at 10 µM, human neutrophils, read-out: inhibition of 5-LO activity in intact cells)	inhibition of 5-LO activity, cell-free [2]	inhibition at 10 µM ([1]; at 10 µM)	inhibition of cathepsin G ([1]; at 10 µM)	fold more potent than AKBA 1 in intact cells ([3]; human neutrophils, IC50 comparison)
600 nM				CC(=O)O[C@@H]1CC[C@@]2(C)[C@@H](CC[C@]3(C)[C@@H]2C(=O)C=C2[C@@H]4[C@@H](C)[C@H](C)CC[C@]4(C)CC[C@]23C)[C@@]1(C)C(=O)O [compound 1, 3-O-acteyl-11-keto-β-BA]	submicromolar	14.8 ± 0.9%	3 µM	40.7 ± 10.8%	3 µM	23.1 ± 9.8%						
4100 nM				C[C@H]1[C@H](C)CC[C@]2(C)CC[C@]3(C)C(=CC(=O)[C@@H]4[C@@]5(C)CC[C@@H](O)[C@](C)(C(=O)O)[C@@H]5CC[C@]43C)[C@H]12 [compound 2, 11-keto-β-BA]		29.4 ± 3.5%	4.6 µM	31.1 ± 5%	3.5 µM	25.7 ± 7.3%						
2000 nM	n.i.			CC(=O)O[C@@H]1CC[C@@]2(C)[C@@H](CC[C@]3(C)[C@@H]2CC=C2[C@@H]4[C@@H](C)[C@H](C)CC[C@]4(C)CC[C@]23C)[C@@]1(C)C(=O)O [compound 4, 3-O-acteyl-β-BA]		28.1 ± 4.9%		73.5 ± 13.3%			21 to 26%					
		n.i.	hardly active	C=C(C)[C@@H]1CC[C@]2(C)[C@H](CC=C3[C@@H]4[C@@H](C)[C@H](C)CC[C@]4(C)CC[C@]32C)[C@@]1(C)CCC(=O)O [compound 5]		69.8 ± 8%				74.5 ± 3.7%			failed in this respect			
	n.i.	n.i.	hardly active	CC(C)[C@@H]1CC[C@]2(C)[C@H](CC=C3[C@@H]4[C@@H](C)[C@H](C)CC[C@]4(C)CC[C@]32C)[C@@]1(C)CCC(=O)O [compound 6]		70.4 ± 3.9%							failed in this respect			
				CC(C)[C@@H]1CC[C@]2(C)[C@H](C(=O)C=C3[C@@H]4[C@@H](C)[C@H](C)CC[C@]4(C)CC[C@]32C)[C@@]1(C)CCC(=O)O [compound 7]		53.8 ± 8.1%		73 ± 8.1%	4.3 µM	7.1 ± 3.3%	27%					
				C=C(C)[C@@H]1CC[C@]2(C)CC[C@]3(C)[C@H](CC[C@@H]4[C@@]5(C)CC[C@@H](O)[C@](C)(C(=O)O)[C@@H]5CC[C@]43C)[C@@H]12 [compound 9]		58.1 ± 3.6%		76.6 ± 12.2%	4 µM	36.2 ± 5.1%			did not markedly inhibit 5-LO	27 to 44%		
				C=C(C)[C@@H]1CC[C@]2(CO)CC[C@]3(C)[C@H](CC[C@@H]4[C@@]5(C)CC[C@@H](O)[C@](C)(C(=O)O)[C@@H]5CC[C@]43C)[C@@H]12 [compound 11]		68.1 ± 6.5%	10 µM	52.7 ± 7.1%	4.6 µM	24 ± 7.2%				27 to 44%		
				C=C(C)[C@@H]1CC[C@]2(CO)CC[C@]3(C)[C@H](CC[C@@H]4[C@@]5(C)CC[C@@H](OC(C)=O)[C@](C)(C(=O)O)[C@@H]5CC[C@]43C)[C@@H]12 [compound 12]		87.2 ± 2.5%	8.3 µM	41.8 ± 3.4%	5.1 µM	28.4 ± 11.1%					failed to markedly inhibit cathepsin G	
				CC(C)=CCC[C@H](C(=O)O)[C@@H]1CC[C@]2(C)C3=CC[C@H]4C(C)(C)[C@H](O)CC[C@]4(C)[C@H]3CC[C@@]12C [compound 13]		72.3 ± 3.6%		89.6 ± 8.5%	2.9 µM	8.2 ± 2.2%				27 to 44%		
				CC(C)=CCC[C@H](C(=O)O)[C@@H]1CC[C@]2(C)C3=C(CC[C@@]12C)[C@@]1(C)CC[C@@H](O)C(C)(C)[C@@H]1CC3 [compound 14]		73 ± 7.3%		66 ± 15.1%	1.1 µM	3.1 ± 0.6%	34%			27 to 44%		about 3 fold

SMILES	IC50 [1]	5-LO Activity [% Control] cell-based ([3]; human neutrophils)	5-LO Activity [% Control] cell-free [2]	inhibition of 5-LO activity in intact cells ([3]; at 10 µM, human neutrophils)	Cat. G IC50 [1]	remaining activity at 10 µM [1]	IC50 [2]	remaining activity at 10 µM [2]	IC50 [3]	remaining activity at 10 µM ([3]; human neutrophils)	inhibition at 10 µM [2]	inhibition at 10 µM ([3]; at 10 µM, human neutrophils, read-out: inhibition of 5-LO activity in intact cells)	inhibition of 5-LO activity, cell-free [2]	inhibition at 10 µM ([1]; at 10 µM)	inhibition of cathepsin G ([1]; at 10 µM)	fold more potent than AKBA 1 in intact cells ([3]; human neutrophils, IC50 comparison)
C[C@H]1[C@H](C)CC[C@]2(C)CC[C@]3(C)C(=CC[C@@H]4[C@@]5(C)CC[C@@H](O)[C@](C)(C(=O)O)[C@@H]5CC[C@]43C)[C@H]12 [compound 3, β-BA]	500 nM				submicromolar	27.7 ± 1.8%		78.7 ± 12.6%		53 ± 7.6%	21 to 26%	47%				
C=C(C)[C@@H]1CC[C@]2(C)CC[C@]3(C)[C@H](CC[C@@H]4[C@@]5(C)CC[C@@H](OC(C)=O)[C@](C)(C(=O)O)[C@@H]5CC[C@]43C)[C@@H]12 [compound 10]	7500 nM		n.i.			35.9 ± 2.5%				88.7 ± 6.7%			did not markedly inhibit 5-LO	> 50%		
